# What was measured:
# [1] = 20° C. and 1 atm; cited from earlier work
# [2] = system: human mast cell line (HMC-1); test: Gene expression by quantitative real-time PCR in mast cells; format: cell-based; settings: 1 hour
# Description: Gene-expression profiles for Th17 related cytokines were analysed in HMC-1 treated with 10 g/L or 100 g/L of SurgihoneyRO for 5 minutes, 1 hour and 2 hours using quantitative real-time PCR. The fold change was calculated based on normalisation to the expression of the endogenous R-actin housekeeping gene. […] The dotted line for y=0 represents the untreated control group to which gene expression in the treatment groups were normalised and compared using an unpaired two tailed T test. *p≤0.05, ** […], *** p≤0.001, **** p≤0.0001;
# A human nasal epithelial cell line was used to investigate the immediate effect of SurgihoneyRO (also known as Surgihoney) on the integrity and function of the epithelium. In addition, a human mast cell line was used as a representative leukocyte to investigate immunological responses to SurgihoneyRO. Mast cells were selected because of their function as sentinel cells, being located just underneath the epithelium in tissues.
# We then studied the response of the mast cell line (HMC-1) to SurgihoneyRO treatment.
# In this case, we treated cells with an appropriate concentration range of pure hydrogen peroxide, from 0-400 uM.
# [3] = system: human nasal epithelial cell line; test: Gene expression by quantitative real-time PCR in nasal epithelial cells; format: cell-based; settings: 1 hour
# Description: The fold change was calculated based on normalisation to the expression of the endogenous R-actin housekeeping gene. […] The dotted line for y=0 represents the untreated control group to which gene expression in the treatment groups were normalised and compared using an unpaired two tailed T test. *p≤0.05, ** […], *** p≤0.001, **** p≤0.0001; A human nasal epithelial cell line was used to investigate the immediate effect of SurgihoneyRO (also known as Surgihoney) on the integrity and function of the epithelium. In addition, a human mast cell line was used as a representative leukocyte to investigate immunological responses to SurgihoneyRO. Mast cells were selected because of their function as sentinel cells, being located just underneath the epithelium in tissues. Mast cells have close contact to the external environment, for example being found in the nasal mucosa, where they are ideally placed to participate in the early recognition of pathogens—by acting as immune effectors and modulatory cells with an essential role in linking innate and adaptive immunity in the host's defence against pathogens such as bacteria. […] In this case, we treated cells with an appropriate concentration range of pure hydrogen peroxide, from 0-400 uM.
# [4] = system: 48 h in vitro NTHi biofilms; test: NTHi biofilm assay (cfu enumeration); format: cell-based, non-typeable Haemophilus influenza; settings: 300/60 μg·ml; 2 hours
# Description: Bacterial strains used in this study were isolated from nasopharyngeal swabs of children aged 4 years. NTHi was sub-cultured from frozen stocks onto Colombia agar with chocolated horse blood (Oxoid, UK) and incubated for 18 h at 37° C. and 5% CO2, following which colonies were resuspended in Brain Heart Infusion (BHI) broth supplemented with 10 μg/ml Hemin and 2 μg/ml NAD, and grown to mid-exponential phase for experiments. Pseudomonas aeruginosa PA01 and a clinical methicillin resistant Staphylococcus aureus isolate were subcultured onto Colombia blood agar plates (Oxoid, UK) and grown in non-supplemented BHI. […]
# Mid-exponential planktonic cultures were used to inoculate individual wells of untreated 6-well polystyrene plates (˜1.0×10^8 planktonic bacteria per well; Corning Incorporated, USA). Cultures were incubated at 37° C. and 5% CO2 for 48 h, replacing spent media with fresh supplemented BHI (NTHi) at 24 h. Prior to treatment spent media was removed and biofilms washed twice with Hanks' balanced salt solution (HBSS; Gibco, UK). Biofilms were treated with SurgihoneyRO™ or Acacia (both prepared in HBSS) at final concentrations of 7 to 213 g/L. To assess the effect of pH biofilms were treated with HBSS adjusted to pH6.3 (the pH of 71 g/L SurgihoneyRO™ in HBSS). For adjuvant assays biofilms were treated with 300 μg/mL amoxicillin and 60 μg/mL clavulanic acid (Co-amoxiclav). […]
compound,measurement,setting,value
O=C(CO)[C@@H](O)[C@H](O)[C@H](O)CO [Fructose],solubility,[1],about 375 g/100 g water
OO [hydrogen peroxide],"IL22 expression, fold change",[2]; 40 μM,0.60 fold
same,"IL23R expression, fold change",[2]; 40 μM,0.47 fold
same,"IL22 expression, fold change",[2]; 200 μM,1.25 fold
same,"IL23R expression, fold change",[2]; 200 μM,0.58 fold
same,"MMP7 expression, fold increase",[2]; 200 μM,3.07 fold
same,"IL22 expression, fold change",[2]; 400 μM,1.81 fold
same,"IL23R expression, fold change",[2]; 400 μM,1.05 fold
same,"MMP7 expression, fold increase",[2]; 400 μM,3.31 fold
same,"RORγC expression, mean increase",[2]; 400 μM,2.83 fold
same,"IL22 expression, fold change",[3]; 40 μM,0.90 fold
same,"IL23R expression, fold change",[3]; 40 μM,0.45 fold
same,"IL22 expression, fold change",[3]; 200 μM,1.42 fold
same,"IL23R expression, fold change",[3]; 200 μM,1.20 fold
same,"GATA3 expression, fold increase",[3]; 400 μM,0.92 fold
same,"IL10 expression, fold change",[3]; 400 μM,4.63 fold
same,"IL22 expression, fold change",[3]; 400 μM,4.55 fold
same,"IL23R expression, fold change",[3]; 400 μM,1.87 fold
same,"MMP9 expression, fold change",[3]; 400 μM,1.47 fold
same,"RORγC expression, mean increase",[3]; 400 μM,14.57 fold
co-amoxiclav,effect on biofilm viability,[4],no effect

# Reference: patent US20200030347A1, “ANTIMICROBIAL COMPOSITIONS” (Matoke Holdings Limited, priority 2016, published 2020)
